Source: article PMC4911231 (Journal of acquired immune deficiency syndromes (1999), 2016)
Where “and” joins values, the source holds several entries; their conditions need not be identical. Equal values may be shown once. Read-outs that look alike come from different tables or passages of the source. Marks after values point to notes of the source that are not given here.

Tests used:
[1] = cited from earlier work
[2] = clinical; conditions: female, human, in vivo
[3] = test system: HIV-1; experiment: Maternal plasma HIV-1 RNA; type: in vivo, human; conditions: rilpivirine with combination antiretrovirals
[4] = Maternal safety, pregnancy and infant outcomes; type: in vivo, human
[5] = Stability in stored plasma; type: physicochemical; conditions: plasma stored at −70°C
[6] = test system: HIV-1; conditions: cited from earlier work
[7] = cited from earlier work; remark: listed apart in the source
[8] = cited from earlier work; remark: listed apart in the source
[9] = test system: cytochrome P450 3A4 (CYP 3A4); conditions: cited from earlier work
[10] = cited from earlier work; remark: listed apart in the source
[11] = for AUC24 geometric mean (90% CI) ratio: within-subject; for Tmax: mode (range); for Vd/F: Vd/F (apparent volume of distribution); for AUC: one subject on concomitant darunavir/ritonavir
[12] = 25 mg once daily, postpartum, median (range)
[13] = 25 mg once daily, second trimester, median (range)
[14] = 25 mg once daily, third trimester, median (range)
[15] = Second Trimester/Postpartum, n = 15
[16] = Second Trimester/Third Trimester, n = 15
[17] = Third Trimester/Postpartum, n = 28
[18] = female, human, plasma, oral, 25 mg, 25 mg once daily, second trimester, median (range)

Compound: Cc1c(O)cccc1C(=O)N[C@@H](CSc1ccccc1)[C@H](O)CN1C[C@H]2CCCC[C@H]2C[C@H]1C(=O)NC(C)(C)C [nelfinavir]
- AUC during pregnancy compared to postpartum ([1]; HIV protease inhibitors): significant decreases

Compound: CC(C)CN(C[C@@H](OP(=O)(O)O)[C@H](Cc1ccccc1)NC(=O)O[C@H]1CCOC1)S(=O)(=O)c1ccc(N)cc1 [fosamprenavir]
- AUC during pregnancy compared to postpartum ([1]; in vivo): significant decreases

Compound: COC(=O)N[C@H](C(=O)N[C@@H](Cc1ccccc1)[C@@H](O)CN(Cc1ccc(-c2ccccn2)cc1)NC(=O)[C@@H](NC(=O)OC)C(C)(C)C)C(C)(C)C [atazanavir]
- AUC during pregnancy compared to postpartum ([1]; HIV protease inhibitors): significant decreases

Compound: Cc1cc(C#N)cc(C)c1Oc1nc(Nc2ccc(C#N)cc2)nc(N)c1Br [etravirine]
- Exposure during pregnancy compared to postpartum [1]: increased

Compound: CC(C)(C)NC(=O)[C@@H]1CN(Cc2cccnc2)CCN1C[C@@H](O)C[C@@H](Cc1ccccc1)C(=O)N[C@H]1c2ccccc2C[C@H]1O [indinavir]
- AUC during pregnancy compared to postpartum ([1]; in vivo): significant decreases

Compound: Cc1cccc(C)c1OCC(=O)N[C@@H](Cc1ccccc1)[C@@H](O)C[C@H](Cc1ccccc1)NC(=O)[C@H](C(C)C)N1CCCNC1=O [lopinavir]
- AUC during pregnancy compared to postpartum ([1]; in vivo): significant decreases

Compound: Cc1ccnc2c1NC(=O)c1cccnc1N2C1CC1 [nevirapine]
- AUC reduced during third trimester compared to postpartum ([1]; in vivo): 20%
- Cmax reduced during third trimester compared to postpartum ([1]; in vivo): 20%
- Cmin reduced during third trimester compared to postpartum ([1]; in vivo): 20%

Compound: CC(C)CN(C[C@@H](O)[C@H](Cc1ccccc1)NC(=O)O[C@H]1CO[C@H]2OCC[C@H]21)S(=O)(=O)c1ccc(N)cc1 [darunavir]
- AUC during pregnancy compared to postpartum ([1]; HIV protease inhibitors): significant decreases

Compound: Cc1cc(/C=C/C#N)cc(C)c1Nc1ccnc(Nc2ccc(C#N)cc2)n1 [Rilpivirine]
- Kp [2]: 0.55
- Maternal plasma rilpivirine concentration at delivery, median (range) [2]: 103.3 (<10 to 273.4) ng/mL
- Umbilical cord blood rilpivirine concentration at delivery, median (range) [2]: 53.78 (<10 to 219.7) ng/mL
- HIV-1 RNA at 2nd trimester, median (range) [3]: < 40 (<20 – 2770) copies/mL
- HIV-1 RNA at 3rd trimester, median (range) [3]: < 20 (<20 – 48700) copies/mL
- HIV-1 RNA at Delivery, median (range) [3]: < 20 (<16 – 48700) copies/mL
- Number of preterm deliveries ([4]; at 32, 35, and 36 weeks, N of 30): 3 (10%)
- Gestational age at delivery, median (range) ([4]; in vivo): 38.9 (32.3 – 41.4) weeks
- Infant Birth weight, median (range) ([4]; in vivo): 3095 (1570 – 4570) g
- Tolerability ([4]; pregnant and postpartum women, 25 mg once daily): well tolerated
- Stability in plasma [5]: 2 years
- median EC50 [6]: 0.27 ng/mL
- median EC90 [6]: 0.66 ng/mL
- protein binding-adjusted EC50 [6]: 5.0 ng/mL
- Bound to protein [7]: 99.7%
- Cord blood to maternal plasma ratio ([8]; one person): 0.74
- Reduction in exposure during pregnancy compared to postpartum ([8]; two women, one value each): 30% and 43%
- Substrate of cytochrome P450 3A4 [9]: substrate
- Coefficient of variation (CV) for AUC ([10]; human, in vivo): 38%
- 10th percentile rilpivirine AUC ([10]; non-pregnant adults): 880 ng·h/mL
- C0 (pre-dose concentration) [11, 12]: 69 (<10 – 285) ng/mL
- C24 (24 hour post-dose concentration) [11, 12]: 81 (<10 – 299) ng/mL
- Cmin (minimum observed concentration) [11, 12]: 58 (<10 – 200) ng/mL
- C0 (pre-dose concentration) [11, 13]: 98(31 – 216) ^‡ ng/mL
- C24 (24 hour post-dose concentration) [11, 13]: 63(37 – 225) ^* ng/mL
- Cmin (minimum observed concentration) [11, 13]: 65(29 – 178) ng/mL
- C0 (pre-dose concentration) [11, 14]: 56(<10 – 210) ng/mL
- C24 (24 hour post-dose concentration) [11, 14]: 56(<10 – 181) ^† ng/mL
- Cmin (minimum observed concentration) [11, 14]: 51(<10 – 136) ng/mL
- Coefficient of variation (CV) for Cmax ([11]; 2nd trimester): 53%
- Coefficient of variation (CV) for Cmin ([11]; 2nd trimester): 55%
- Coefficient of variation (CV) for AUC ([11]; 2nd trimester, between-subject): 186%
- Coefficient of variation (CV) for AUC ([11]; 3rd trimester): 194%
- Coefficient of variation (CV) for Cmax ([11]; 3rd trimester): 212%
- Coefficient of variation (CV) for Cmin ([11]; 3rd trimester): 154%
- Minimum plasma concentration (Cmin), median (range) ([11]; 14 visits with detectable HIV-1 RNA): 30 (<10 – 93) ng/mL and 30 ng/mL
- Minimum plasma concentration (Cmin), median (range) ([11]; 62 visits with undetectable HIV-1 RNA): 63 (15 – 199) ng/mL and 63 ng/mL
- C0 geometric mean (90% CI) ratio [11, 15]: 0.91 (0.61 – 1.38)
- C24 geometric mean (90% CI) ratio [11, 15]: 0.70 (0.55 – 0.90)
- CL/F geometric mean (90% CI) ratio [11, 15]: 1.33 (1.04 – 1.70)
- Cmax geometric mean (90% CI) ratio [11, 15]: 0.84 (0.69 – 1.02)
- Cmin geometric mean (90% CI) ratio [11, 15]: 0.88 (0.63 – 1.21)
- Vd/F geometric mean (90% CI) ratio [11, 15]: 1.50 (0.58 – 3.93)
- AUC24 geometric mean (90% CI) ratio [11, 15]: 0.77 (0.61 – 0.96)
- C0 geometric mean (90% CI) ratio [11, 16]: 1.30 (1.06 – 1.60)
- C24 geometric mean (90% CI) ratio [11, 16]: 1.09 (0.95 – 1.26)
- CL/F geometric mean (90% CI) ratio [11, 16]: 0.92 (0.81 – 1.05)
- Cmax geometric mean (90% CI) ratio [11, 16]: 1.13 (0.96 – 1.34)
- Cmin geometric mean (90% CI) ratio [11, 16]: 1.22(1.02 – 1.45)
- Vd/F geometric mean (90% CI) ratio [11, 16]: 0.36(0.22 – 0.58)
- AUC24 geometric mean (90% CI) ratio [11, 16]: 1.09 (0.96 – 1.23)
- C0 geometric mean (90% CI) ratio [11, 17]: 0.94 (0.59 – 1.50)
- C24 geometric mean (90% CI) ratio [11, 17]: 0.84 (0.57 – 1.23)
- CL/F geometric mean (90% CI) ratio [11, 17]: 1.26 (0.97 – 1.64)
- Cmax geometric mean (90% CI) ratio [11, 17]: 0.83 (0.68 – 1.01)
- Cmin geometric mean (90% CI) ratio [11, 17]: 1.11 (0.70 – 1.74)
- Vd/F geometric mean (90% CI) ratio [11, 17]: 1.42 (0.68 – 2.97)
- AUC24 geometric mean (90% CI) ratio [11, 17]: 0.80 (0.62 – 1.03)
- concentration at 24 h ([11]; female, human, plasma, oral, 25 mg, C24 (24 hour post-dose concentration), 25 mg once daily, second trimester, median (range)): 63 ng/mL
- Cmax ([11]; female, human, plasma, oral, 25 mg, 25 mg once daily, postpartum, median (range)): 134 ng/mL
- Cmax [11, 18]: 145 ng/mL
- Tmax ([11]; female, human, plasma, oral, 25 mg, 25 mg once daily, postpartum): 4 h
- Tmax ([11]; female, human, plasma, oral, 25 mg, 25 mg once daily, third trimester): 2 h
- Vd/F [11, 18]: 750 L
- Vd/F ([11]; female, human, plasma, oral, 25 mg, 25 mg once daily, third trimester, median (range)): 1210 L
- AUC ([11]; human, plasma, oral, 25 mg, second trimester): 12400 ng·h/mL
- AUC ([11]; human, plasma, oral, 25 mg, third trimester): 3600 ng·h/mL
- Coefficient of variation (CV) for AUC ([11]; postpartum): 60%
- Coefficient of variation (CV) for Cmax ([11]; postpartum): 58%
- Coefficient of variation (CV) for Cmin ([11]; postpartum): 71%
- Women below the AUC0–24 10th percentile target (880 ng*hr/mL) ([11]; postpartum, 3 of 28): 11%
- Women with absorption lag (1 hour post-dose concentration less than pre-dose) ([11]; postpartum, 11 of 28): 39%
- C24 lower vs. postpartum ([11]; second trimester): 30%
- Reduction of AUC compared to postpartum ([11]; second trimester): 23%
- Women below the AUC0–24 10th percentile target (880 ng*hr/mL) ([11]; second trimester, 1 of 15): 7%
- Women with absorption lag (1 hour post-dose concentration less than pre-dose) ([11]; second trimester, 9 of 18): 50%
- C24 lower vs. postpartum ([11]; third trimester): 16%
- Reduction of drug exposure (AUC) compared to postpartum ([11]; third trimester): 20%
- Women below the AUC0–24 10th percentile target (880 ng*hr/mL) ([11]; third trimester, 2 of 28): 7%
- Women with absorption lag (1 hour post-dose concentration less than pre-dose) ([11]; third trimester, 13 of 30): 43%

Compound: CC(C)(C)NC(=O)[C@@H]1C[C@@H]2CCCC[C@@H]2CN1C[C@@H](O)[C@H](Cc1ccccc1)NC(=O)[C@H](CC(N)=O)NC(=O)c1ccc2ccccc2n1 [saquinavir]
- AUC during pregnancy compared to postpartum ([1]; in vivo): significant decreases

Compound: O=C1Nc2ccc(Cl)cc2[C@@](C#CC2CC2)(C(F)(F)F)O1 [efavirenz]
- Clearance during pregnancy [1]: increased
